Assay results taken from patent US20240002416A1 (Rheinische-Friedrich-Wilhelms-Universität Bonn, priority 2020, published 2024).

Assays:
Format in all cases: cell-based
human MRGPRX4-83L [1] = target: T1, human MRGPRX4-83L (Homo sapiens, UniProt Q96LA9); experiment: β-arrestin assay (CHO β-arrestin ARMS1-ProLink 2 human MRGPRX4 83L); details: for IC50: inhibition of the effect of 2.6 μM B-16; for EC50: β-arrestin recruitment, CHO cells, MRGPRX4-83L, read-out: EC50 ± SEM; for Emax: read-out: Emax
T1 construct: host or cells: CHO β-arrestin cells
T1 sequence (Q96LA9 whole entry): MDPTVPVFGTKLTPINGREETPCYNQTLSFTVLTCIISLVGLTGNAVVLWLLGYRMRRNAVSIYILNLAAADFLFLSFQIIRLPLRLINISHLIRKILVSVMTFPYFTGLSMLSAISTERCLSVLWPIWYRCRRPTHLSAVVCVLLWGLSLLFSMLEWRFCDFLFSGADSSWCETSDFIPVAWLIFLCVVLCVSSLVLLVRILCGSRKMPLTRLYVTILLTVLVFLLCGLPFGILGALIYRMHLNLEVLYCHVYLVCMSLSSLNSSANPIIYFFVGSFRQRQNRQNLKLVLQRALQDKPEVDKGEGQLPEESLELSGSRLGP
Method: (§1) For β-arrestin recruitment assays, recombinant Chinese hamster ovary (CHO) cells expressing the human MRGPRX4 were used (DiscoverX/Eurofins) which allowed to measure β-galactosidase complementation upon β-arrestin recruitment. For calcium mobilization assays, recombinant astrocytes expressing MRGPX4-83L, or LN229 glioblastoma cells natively expressing the MRGPRX4-83S, were used.
(§2) The assays were performed as previously described for other rhodopsin-like GPCRs (Müller, C.E.; 8-Benzamidochromen-4-one-2-carboxylic acids: potent and selective agonists for the orphan G protein-coupled receptor GPR35. J. Med. Chem. 2013, 56:5182-97; Müller, C.E. Molecular Recognition of Agonists and Antagonists by the Nucleotide-Activated G Protein-Coupled P2Y2 Receptor. J. Med. Chem. 2017, 60:8425-8440).

human MRGPRX4-83L [2] = target: T1, human MRGPRX4-83L; experiment: Calcium assay (human MRGPRX4 83L), recombinant astrocytes; details: for EC50: calcium mobilization, MRGPRX4-83L, read-out: EC50 ± SEM; for Emax: read-out: Emax
Method: as §1, §2

MRGPRX4-83S [3] = target: T2, MRGPRX4-83S (Homo sapiens, UniProt Q96LA9, L83S); experiment: Calcium assay (human glioblastoma LN229 cells expressing the MRGPRX4-83S); design: LN229 glioblastoma cells natively expressing the MRGPRX4-83S; endogenous in cells; host or cells: LN229 human glioblastoma cells; details: for EC50: calcium mobilization, LN229 cells, MRGPRX4-83S, read-out: EC50 ± SEM; for Emax: LN-229, efficacy based on 30 μM H-1 (set as 100%), read-out: Emax
T2 sequence (Q96LA9 whole entry L83S): as the sequence (Q96LA9 whole entry) above, with L83S counted along it
Method: as §1, §2

MRGPRX4-83S [4] = target: T2, MRGPRX4-83S; experiment: β-arrestin assay (CHO β-arrestin human MRGPRX4-83S); design: host or cells: CHO β-arrestin cells; details: for Emax: efficacy based on 100 nM B-16 (set as 100%), read-out: Emax; for EC50: β-arrestin recruitment, CHO cells, MRGPRX4-83S, read-out: EC50 ± SEM
Method: as §1, §2

[5] = Table 1, means of 3-4 experiments
[6] = Table 1, efficacy based on maximal effect of 1 μM B-16 (set as 100%)
[7] = Table 1, efficacy based on maximal effect of 100 nM B-16 (set as 100%)

IC50 (human MRGPRX4-83L [1]; Table 1) [nM] | EC50 (human MRGPRX4-83L [1]; [5]) [nM] | EC50 (human MRGPRX4-83L [2]; Table 1) [nM] | EC50 (MRGPRX4-83S [3]; Table 2) [nM] | Emax (human MRGPRX4-83L [2]; [6]) [%] | Emax (MRGPRX4-83S [4]; Table 2) [%] | EC50 (MRGPRX4-83S [4]; Table 2) [nM] | Emax (MRGPRX4-83S [3]; Table 2) [%] | Emax (human MRGPRX4-83L [1]; [7]) [%] | SMILES | IC50 (human MRGPRX4-83L [2]) [nM] | further results
> 10000 | > 10000 | > 10000 | > 10000 | – | – | – | – | – | C#CCn1c(=O)c2c(nc(-c3cccc(OC)c3)n2C)n(CCCOP(=O)(O)O)c1=O [A-1, 3-(8-(3-Methoxyphenyl)-7-methyl-2,6-dioxo-1-(prop-2-yn-1-yl)-1,2,6,7-tetrahydro-3H-purin-3-yl)propyl dihydrogen phosphate, reference compound] | > 10000 | –
> 10000 | > 10000 | 3250 ± 610 | 134 ± 17 | 110 | 84 | 399 ± 115 | 92 | – | C#CCn1c(=O)c2[nH]c(CCc3ccccc3)nc2n(CCCCP(=O)(O)O)c1=O [B-1, (4-(2,6-Dioxo-8-phenethyl-1-(prop-2-yn-1-yl)-1,2,6,7-tetrahydro-3H-purin-3-yl)butyl)phosphonic acid] | – | –
– | 5710 ± 1230 | 435 ± 78 | 11.2 ± 1.3 | 102 | 98 | 32 ± 11 | 99 | 91 | C#CCn1c(=O)c2[nH]c(CCc3cccc(OC)c3)nc2n(CCCCP(=O)(O)O)c1=O [B-2, (4-(8-(3-Methoxyphenethyl)-2,6-dioxo-1-(prop-2-yn-1-yl)-1,2,6,7-tetrahydro-3H-purin-3-yl)butyl)phosphonic acid] | – | –
> 10000 | > 10000 | 3800 ± 190 | 214 ± 51 | 104 | 102 | 1190 ± 50 | 94 | – | CCn1c(=O)c2[nH]c(CCc3cccc(OC)c3)nc2n(CCCCP(=O)(O)O)c1=O [B-12, (4-(1-Ethyl-8-(3-methoxyphenethyl)-2,6-dioxo-1,2,6,7-tetrahydro-3H-purin-3-yl)butyl)phosphonic acid] | – | value in brackets beside IC50 >10 (human MRGPRX4-83L [1]; Table 1, bracketed value ± spread in IC50 column, not defined, inhibition of 2.6 μM B-16): −27 ± 9
– | 48300 ± 14100 | 1600 ± 460 | 59.9 ± 10.7 | 94 | 93 | 68.9 ± 17 | 91 | 96 | COc1cccc(CCc2nc3c([nH]2)c(=O)n(CC2CCC2)c(=O)n3CCCCP(=O)(O)O)c1 [B-13, (4-(1-(Cyclobutylmethyl)-8-(3-methoxyphenethyl)-2,6-dioxo-1,2,6,7-tetrahydro-3H-purin-3-yl)butyl)phosphonic acid] | – | –
– | 6280 ± 1380 | 333 ± 7 | 19.2 ± 3.5 | 113 | 140 | 30 ± 5.8 | 132 | 141 | C#CCn1c(=O)c2c(nc(CCc3cccc(OC)c3)n2C)n(CCCCP(=O)(O)O)c1=O [B-15, (4-(8-(3-Methoxyphenethyl)-7-methyl-2,6-dioxo-1-(prop-2-yn-1-yl)-1,2,6,7-tetrahydro-3H-purin-3-yl)butyl)phosphonic acid] | – | –
– | 370 ± 50 | 32.4 ± 5.6 | 3.17 ± 0.6 | – | 100 | 2.28 ± 0.16 | 137 | – | C#CCn1c(=O)c2c(nc(CCc3cccc(C(F)(F)F)c3)n2C)n(CCCCP(=O)(O)O)c1=O [B-16, (4-(7-Methyl-2,6-dioxo-1-(prop-2-yn-1-yl)-8-(3-(trifluoromethyl)phenethyl)-1,2,6,7-tetrahydro-3H-purin-3-yl)butyl)phosphonic acid] | – | Emax at 0.1 µM (human MRGPRX4-83L [1]; [7]): 100%; Emax at 1 µM (human MRGPRX4-83L [2]; [6]): 100%
– | 169 ± 60 | 2.23 ± 0.13 | – | 109 | – | – | – | 114 | C#CCn1c(=O)c2c(nc(CCc3ccccc3Cl)n2C)n(CCCCP(=O)(O)O)c1=O [B-17, (4-(8-(2-Chlorophenethyl)-7-methyl-2,6-dioxo-1-(prop-2-yn-1-yl)-1,2,6,7-tetrahydro-3H-purin-3-yl)butyl)phosphonic acid] | – | –
– | 93.5 ± 5.4 | 6.35 ± 1.67 | 0.501 ± 0.076 | 112 | 128 | 0.296 ± 0.033 | 108 | 132 | C#CCn1c(=O)c2c(nc(CCc3ccccc3Br)n2C)n(CCCCP(=O)(O)O)c1=O [B-18, (4-(8-(2-Bromophenethyl)-7-methyl-2,6-dioxo-1-(prop-2-yn-1-yl)-1,2,6,7-tetrahydro-3H-purin-3-yl)butyl)phosphonic acid] | – | –
– | – | – | – | – | – | – | – | – | C#CCn1c(=O)c2c(nc(CCc3c(C)cccc3C)n2CC)n(CCCCP(=O)(O)O)c1=O [B-33, (4-(8-(2,6-Dimethylphenethyl)-7-ethyl-2,6-dioxo-1-(prop-2-yn-1-yl)-1,2,6,7-tetrahydro-3H-purin-3-yl)butyl)phosphonic acid] | – | Emax (MRGPRX4-83S [4]; Table 3): 113%; EC50 (MRGPRX4-83S [4]; Table 3): 0.0487 ± 0.0201 nM; Emax (MRGPRX4-83S [3]; Table 3): 113%; EC50 (MRGPRX4-83S [3]; Table 3): 0.543 ± 0.186 nM
– | – | – | – | – | – | – | – | – | C#CCn1c(=O)c2c(nc(Cc3ccc4ccccc4c3)n2CC)n(CCCCP(=O)(O)O)c1=O [B-58] | – | EC50 (human MRGPRX4-83L [1]; Table 4): > 10000 nM; EC50 (human MRGPRX4-83L [2]; Table 4): > 10000 nM; EC50 (MRGPRX4-83S [4]; Table 3): > 100000 nM; IC50 (MRGPRX4-83S [3]): 31.7 ± 19.1 nM; EC50 (MRGPRX4-83S [3]; Table 3): > 10000 nM
> 10000 | > 10000 | > 10000 | – | – | – | > 10000 | – | – | C#CCn1c(=O)c2[nH]c(CCc3ccccc3Br)nc2n(CCCCS(=O)(=O)O)c1=O [E-1, 4-(8-(2-Bromophenethyl)-2,6-dioxo-1-(prop-2-yn-1-yl)-1,2,6,7-tetrahydro-3H-purin-3-yl)butane-1-sulfonic acid] | > 10000 | –
> 10000 | > 10000 | > 10000 | – | – | – | > 10000 | – | – | C#CCn1c(=O)c2[nH]c(CCc3cccc(OC)c3)nc2n(CCCCS(=O)(=O)O)c1=O [E-3, 4-(8-(3-Methoxyphenethyl)-2,6-dioxo-1-(prop-2-yn-1-yl)-1,2,6,7-tetrahydro-3H-purin-3-yl)butane-1-sulfonic acid] | > 10000 | –

SMILES | IC50 (human MRGPRX4-83L [1]; Table 1) [nM] | EC50 (human MRGPRX4-83L [1]; [5]) [nM] | EC50 (human MRGPRX4-83L [2]; Table 1) [nM] | EC50 (MRGPRX4-83S [3]; Table 2) [nM] | Emax (human MRGPRX4-83L [2]; [6]) [%] | Emax (MRGPRX4-83S [4]; Table 2) [%] | EC50 (MRGPRX4-83S [4]; Table 2) [nM] | Emax (MRGPRX4-83S [3]; Table 2) [%] | Emax (human MRGPRX4-83L [1]; [7]) [%] | IC50 (human MRGPRX4-83L [2]) [nM] | further results
C#CCn1c(=O)c2[nH]c(CCc3cccc(OC)c3)nc2n(CCCCP(=O)(OCC)OCC)c1=O [C-6, Diethyl (4-(8-(3-methoxyphenethyl)-2,6-dioxo-1-(prop-2-yn-1-yl)-1,2,6,7-tetrahydro-3H-purin-3-yl)butyl)phosphonate] | > 10000 | > 10000 | > 10000 | – | – | – | > 10000 | – | – | > 10000 | –
C#CCn1c(=O)c2[nH]c(CCc3ccc(OC)c(OC)c3)nc2n(CCCCP(=O)(OCC)OCC)c1=O [C-8, Diethyl (4-(8-(3,4-dimethoxyphenethyl)-2,6-dioxo-1-(prop-2-yn-1-yl)-1,2,6,7-tetrahydro-3H-purin-3-yl)butyl)phosphonate] | > 10000 | > 10000 | > 10000 | – | – | – | > 10000 | – | – | > 10000 | –
CCOP(=O)(CCCCn1c(=O)n(CC)c(=O)c2[nH]c(COc3ccccc3)nc21)OCC [C-10, Diethyl (4-(1-ethyl-2,6-dioxo-8-(phenoxymethyl)-1,2,6,7-tetrahydro-3H-purin-3-yl)butyl)phosphonate] | > 10000 | > 10000 | > 10000 | – | – | – | > 10000 | – | – | > 10000 | –
C#CCn1c(=O)c2c(nc(CCc3ccccc3Br)n2C)n(CCCCP(=O)(O)OCC)c1=O [D-1, Ethyl hydrogen (4-(8-(2-bromophenethyl)-7-methyl-2,6-dioxo-1-(prop-2-yn-1-yl)-1,2,6,7-tetrahydro-3H-purin-3-yl)butyl)phosphonate] | – | 395 ± 126 | 55.5 ± 9 | 134 ± 12 | 115 | 120 | 114 ± 23 | 105 | 108 | – | –
